Among the data in ChEMBL document CHEMBL5154782, “Discovery of Potent PROTACs Targeting EGFR Mutants through the Optimization of Covalent EGFR Ligands” (J Med Chem, 2022) are IC50 and Activity values, retold here.

The term IC50 denotes the point on the concentration scale where inhibition reaches its midpoint.

Molecules are shown by their SMILES. Bounds are passed on as bounds.

The subject of one experiment is A-431. Put plainly: Antiproliferative activity against human A-431 cells expressing EGFR wildtype assessed as inhibition of cell proliferation incubated for 72 hrs by MTT assay. The class given is functional, cell-based. The settings on record: A-431, 72 h. Background: Tetrazolium dyes change colour on reduction, which living cells bring about.
A further experiment concerns NCI-H1975. As to the kind of experiment: Antiproliferative activity against human NCI-H1975 cells expressing EGFR L858R/T790M mutant assessed as inhibition of cell proliferation incubated for 72 hrs by MTT assay. The note with it: NCI-H1975, 72 h. It counts as functional, cell-based.
The test system of experiment [1] is von Hippel-Lindau disease tumor suppressor/Epidermal growth factor receptor (Homo sapiens), P00533+P40337 [UNDEFINED MUTATION]. As to the kind of experiment: Protac activity at VHL/EGFR/deletion19 in human HCC827 cells assessed as induction of EGFR degradation at 3 nM incubated for 24 hrs by Western blot analysis relative to control. The class given is cell-based. (Immunoblotting shows a protein as a band on a membrane.)

In experiment [2] the test system is von Hippel-Lindau disease tumor suppressor/Epidermal growth factor receptor (Homo sapiens), P00533+P40337 [L858R,T790M]. Put plainly: Protac activity at VHL/EGFR L858R/T790M mutant in human NCI-H1975 cells assessed as induction of EGFR degradation at 100 nM incubated for 24 hrs by Western blot analysis relative to control. The class given is cell-based.
The test system is the same in experiment [3]. As to the kind of experiment: Protac activity at VHL/EGFR L858R/T790M mutant in human NCI-H1975 cells assessed as induction of EGFR degradation at 10 nM incubated for 24 hrs by Western blot analysis relative to control. The class given is cell-based.
Experiment [4] has as its system von Hippel-Lindau disease tumor suppressor/Epidermal growth factor receptor (Homo sapiens), P00533+P40337 [UNDEFINED MUTATION]. As to the kind of experiment: Protac activity at VHL/EGFR/deletion19 in human HCC827 cells assessed as induction of EGFR degradation at 30 nM incubated for 24 hrs by Western blot analysis relative to control. It counts as cell-based.
Another experiment concerns HCC827. Put plainly: Antiproliferative activity against human HCC827 cells expressing EGFR deletion19 mutant assessed as inhibition of cell proliferation incubated for 72 hrs by MTT assay. It counts as functional, cell-based. The note with it: HCC827, 72 h.
For experiment [5], the target named is von Hippel-Lindau disease tumor suppressor/Epidermal growth factor receptor (Homo sapiens, UniProt P00533+P40337, L858R/T790M). Put plainly: Protac activity at VHL/EGFR L858R/T790M mutant (unknown origin) assessed as inhibition of EGFR incubated for 40 mins in presence of ATP by Kinase Glo luminescence assay. It counts as protein assay.
The subject of experiment [6] is von Hippel-Lindau disease tumor suppressor/Epidermal growth factor receptor (Homo sapiens), P00533+P40337 [L858R,T790M]. As to the kind of experiment: Protac activity at VHL/EGFR L858R/T790M mutant in human NCI-H1975 cells assessed as induction of EGFR degradation at 1000 nM incubated for 24 hrs by Western blot analysis relative to control. It counts as cell-based.

For experiment [7] the test system is unchanged. Put plainly: Protac activity at VHL/[…] cells assessed as induction of EGFR degradation at 100 nM incubated for 24 hrs by Western blot analysis relative to control. It counts as cell-based.
For experiment [8] the test system is unchanged. Put plainly: Protac activity at VHL/[…] cells assessed as induction of EGFR degradation at 1000 nM incubated for 24 hrs by Western blot analysis relative to control. The class given is cell-based.

Turning to `C=CC(=O)N1CCC[C@H](n2c(Nc3ccccc3)nc3cnc(Nc4ccc(N5CCN(CCCCCCC(=O)N[C@H](C(=O)N6C[C@H](O)C[C@H]6C(=O)NCc6ccc(-c7scnc7C)cc6)C(C)(C)C)CC5)cc4)nc32)C1`, the IC50 is more than 10000 nM in the experiment on A-431, 40 nM in the experiment on NCI-H1975 and 1.67 nM in the experiment with HCC827. The Activity in [1] is 62%; in [2] it was 69%; in experiment [3], 49%; in experiment [4], 70%.
Turning to `C=CC(=O)N1CCC(n2c(Nc3ccccc3)nc3cnc(Nc4ccc(N5CCN(C)CC5)cc4)nc32)CC1`, the values for the IC50 with NCI-H1975 and in the experiment on HCC827 were 360 nM and 2.19 nM, respectively.
With `C=CC(=O)Nc1cccc(-n2c(Nc3ccccc3)nc3cnc(Nc4ccc(N5CCN(C)CC5)cc4)nc32)c1`, the IC50 stood at 41 nM in the experiment with NCI-H1975 and 0.38 nM with HCC827.
As for `COc1cc(N2CCN(CC(=O)NCCCCCCC(=O)N[C@H](C(=O)N3C[C@H](O)C[C@H]3C(=O)NCc3ccc(-c4scnc4C)cc3)C(C)(C)C)CC2)c(NC(=O)/C(C#N)=C/c2ccncc2)cc1Nc1nccc(-c2cn(C)c3ccccc23)n1`, the IC50 (in the experiment with NCI-H1975; in experiment [5]; in the experiment on HCC827) was more than 10000 nM in each case.
On to `C=CC(=O)N1CCC[C@H](n2c(Nc3ccccc3)nc3cnc(Nc4ccc(N5CCN(CCCCCCCC(=O)N[C@H](C(=O)N6C[C@@H](O)C[C@H]6C(=O)N[C@@H](C)c6ccc(-c7scnc7C)cc6)C(C)(C)C)CC5)cc4)nc32)C1`, for which the IC50 with NCI-H1975 was 41 nM; with HCC827, 1.83 nM.
For `C=CC(=O)N1CCC[C@H](n2c(Nc3ccccc3)nc3cnc(Nc4ccc(N5CCN(CC(=O)NCCOCCOCC(=O)N[C@H](C(=O)N6C[C@H](O)C[C@H]6C(=O)NCc6ccc(-c7scnc7C)cc6)C(C)(C)C)CC5)cc4)nc32)C1`, the values for the IC50 with NCI-H1975 and with HCC827 were 282 nM and 59.6 nM, respectively. For the same compound, the Activity in [1] was 50%; in experiment [2] it was less than 20%; in experiment [3], less than 20%; in experiment [4] it was 57%.
Take `C=CC(=O)N1CC[C@@H](n2c(Nc3ccccc3)nc3cnc(Nc4ccc(N5CCN(C)CC5)cc4)nc32)C1`: the IC50 in the experiment with NCI-H1975 stood at 290 nM; in the experiment on HCC827, 1.16 nM.
Regarding `COc1cc(N2CCN(CC(=O)NCCCCCCC(=O)N[C@H](C(=O)N3C[C@H](O)C[C@H]3C(=O)NCc3ccc(-c4scnc4C)cc3)C(C)(C)C)CC2)c(NC(=O)/C(C#N)=C/C2CC2)cc1Nc1nccc(-c2cn(C)c3ccccc23)n1`, the IC50 (in the experiment on NCI-H1975; in experiment [5]; in the experiment with HCC827) was more than 10000 nM throughout.
With `COc1cc(N(C)CCN(C)C)c(NC(=O)/C=C/CN(C)CCN(C)C(=O)CCCC(=O)N[C@H](C(=O)N2C[C@H](O)C[C@H]2C(=O)NCc2ccc(-c3scnc3C)cc2)C(C)(C)C)cc1Nc1nccc(-c2cn(C)c3ccccc23)n1`, the IC50 in the experiment with NCI-H1975 stood at 2760 nM; with HCC827 it was 150 nM.
On to `COc1cc(N(C)CCN(C)C)c(NC(=O)/C=C/CN(C)CCCCCCCCCC(=O)N[C@H](C(=O)N2C[C@H](O)C[C@H]2C(=O)NCc2ccc(-c3scnc3C)cc2)C(C)(C)C)cc1Nc1nccc(-c2cn(C)c3ccccc23)n1`, for which the Activity in [6] is less than 20%; in experiment [7], less than 20%; in experiment [2], less than 20%; in [8], 30%. The IC50 in the experiment on A-431 worked out at 840 nM; in the experiment with NCI-H1975, 985 nM; in the experiment on HCC827, 61 nM.
With `C=CC(=O)Nc1cc(Nc2nccc(-c3cn(C)c4ccccc34)n2)c(OC)cc1N(CCCCCCC(=O)NCCCCCCC(=O)N[C@H](C(=O)N1C[C@H](O)C[C@H]1C(=O)NCc1ccc(-c2scnc2C)cc1)C(C)(C)C)CCN(C)C`, the Activity in experiment [6], in experiment [7], in [2] and in experiment [8] was less than 20% each time. The IC50 in the experiment with NCI-H1975 was 730 nM; with HCC827 it was 110 nM.
As for `C=CC(=O)N1CCC[C@H](n2c(Nc3ccccc3)nc3cnc(Nc4ccc(N5CCN(CC(=O)NCCCCCC(=O)N[C@H](C(=O)N6C[C@H](O)C[C@H]6C(=O)NCc6ccc(-c7scnc7C)cc6)C(C)(C)C)CC5)cc4)nc32)C1`, the IC50 in the experiment with NCI-H1975 turned out to be 250 nM; in the experiment on HCC827, 36.5 nM. The Activity is 46% in [1], 23% in [2], less than 20% in experiment [3] and 60% in experiment [4].
For the compound `COc1cc(N(C)CCN(C)C)c(NC(=O)/C=C/CN(C)CCN(C)C(=O)CCCCCCC(=O)N[C@H](C(=O)N2C[C@H](O)C[C@H]2C(=O)NCc2ccc(-c3scnc3C)cc2)C(C)(C)C)cc1Nc1nccc(-c2cn(C)c3ccccc23)n1`, the Activity in experiment [6] is less than 20%; in [7], less than 20%; in [2], less than 20%; in experiment [8], 24%. Besides, the IC50 in the experiment on A-431 was more than 10000 nM; with NCI-H1975 it was 1690 nM; in the experiment with HCC827, 130 nM.
For the compound `COc1cc(N2CCN(C)CC2)c(NC(=O)/C(C#N)=C/C(C)(C)NC(=O)CCCCCC(=O)N[C@H](C(=O)N2C[C@H](O)C[C@H]2C(=O)NCc2ccc(-c3scnc3C)cc2)C(C)(C)C)cc1Nc1nccc(-c2cn(C)c3ccccc23)n1`, the figures for the IC50 (in the experiment with NCI-H1975; in experiment [5]; with HCC827) were 5790 nM, more than 10000 nM and 1390 nM, respectively.
In the case of `CCC(=O)N1CCC[C@H](n2c(Nc3ccccc3)nc3cnc(Nc4ccc(N5CCN(C)CC5)cc4)nc32)C1`, the IC50 with NCI-H1975 was 1170 nM; in the experiment on HCC827, 2.48 nM.
Take `C=CC(=O)Nc1cc(Nc2nccc(-c3cn(C)c4ccccc34)n2)c(OC)cc1N(CCCCCCC(=O)N[C@H](C(=O)N1C[C@H](O)C[C@H]1C(=O)NCc1ccc(-c2scnc2C)cc1)C(C)(C)C)CCN(C)C`: the Activity is less than 20% in experiment [6], less than 28% in [7], less than 20% in [2] and 34% in experiment [8]. Also, the IC50 stood at 1550 nM with A-431, 760 nM with NCI-H1975 and 75 nM in the experiment on HCC827.
On to `C=CC(=O)N1CCC[C@@H](n2c(Nc3ccccc3)nc3cnc(Nc4ccc(N5CCN(C)CC5)cc4)nc32)C1`, for which the half-inhibitory concentration (IC50) with NCI-H1975 came to 266 nM; with HCC827 it was 1.77 nM.
With `COc1cc(N(C)CCN(C)C)c(NC(=O)/C=C/CN(C)CCN(C)C(=O)CCCCCC(=O)N[C@H](C(=O)N2C[C@H](O)C[C@H]2C(=O)NCc2ccc(-c3scnc3C)cc2)C(C)(C)C)cc1Nc1nccc(-c2cn(C)c3ccccc23)n1`, the Activity in experiment [6] is less than 20%; in [7] it was less than 20%; in experiment [2], less than 20%; in experiment [8], 25%. Moreover, the IC50 with NCI-H1975 came to 1470 nM; in the experiment with HCC827, 140 nM.
Turning to `C=CC(=O)N1CCC[C@H](n2c(Nc3ccccc3)nc3cnc(Nc4ccc(N5CCN(CC(=O)NCCCCCCC(=O)N[C@H](C(=O)N6C[C@H](O)C[C@H]6C(=O)NCc6ccc(-c7scnc7C)cc6)C(C)(C)C)CC5)cc4)nc32)C1`, the concentration for half-maximal inhibition (IC50) with NCI-H1975 turned out to be 127 nM; in the experiment on HCC827, 8.93 nM. The Activity is 63% in experiment [1], less than 20% in [2], less than 20% in [3] and 77% in [4].
In the case of `CN1CCN(c2ccc(Nc3ncc4nc(Nc5ccccc5)n(C5CCCC5)c4n3)cc2)CC1`, the results for the IC50 in the experiment on NCI-H1975 and with HCC827 were 342 nM and 0.93 nM, respectively.
On to `COc1cc(N(C)CCN(C)C)c(NC(=O)/C=C/CN(C)CCCCCCCC(=O)N[C@H](C(=O)N2C[C@H](O)C[C@H]2C(=O)NCc2ccc(-c3scnc3C)cc2)C(C)(C)C)cc1Nc1nccc(-c2cn(C)c3ccccc23)n1`, for which the Activity in experiment [6] was less than 20%; in experiment [7] it was less than 20%; in experiment [2], less than 20%; in experiment [8] it was 25%. The IC50 in the experiment on NCI-H1975 was determined as 640 nM; in the experiment on HCC827, 67 nM.
`C=CC(=O)Nc1cc(Nc2nccc(-c3cn(C)c4ccccc34)n2)c(OC)cc1N(C)CCN(C)CC(=O)NCCOCCOCC(=O)N[C@H](C(=O)N1C[C@H](O)C[C@H]1C(=O)NCc1ccc(-c2scnc2C)cc1)C(C)(C)C`: the IC50 amounted to 2370 nM in the experiment on NCI-H1975 and 768 nM with HCC827.
On to `C=CC(=O)Nc1cc(Nc2nccc(-c3cn(C)c4ccccc34)n2)c(OC)cc1N(CCCCCCC(=O)NCCOCCOCC(=O)N[C@H](C(=O)N1C[C@H](O)C[C@H]1C(=O)NCc1ccc(-c2scnc2C)cc1)C(C)(C)C)CCN(C)C`, for which the Activity in [6] is less than 20%; in experiment [7] it was 23%; in experiment [2], less than 20%; in [8], 25%. The half-inhibitory concentration (IC50) in the experiment with NCI-H1975 amounted to 800 nM; in the experiment on HCC827, 683 nM.
For the compound `C=CC(=O)N1CCC(n2c(Nc3ccccc3)nc3cnc(Nc4ccc(N5CCN(C)CC5)nc4)nc32)CC1`, the IC50 was found to be 290 nM with NCI-H1975 and 3.05 nM in the experiment with HCC827.
